According to patent US20110009421A1, “COMPOUND HAVING 6-MEMBERED AROMATIC RING” (TAKEDA PHARMACEUTICAL COMPANY LIMITED, priority 2008, published 2011):
Structures can show the parent of a compound that is named as a salt.

Target: T1, human GPR52 (Homo sapiens, UniProt Q9Y2T5)
T1 construct: expressed in transfected cells; host or cells: CHO (dhfr-) cells
Assay: Increased intracellular cAMP levels in human GPR52 expression CHO cells (AlphaScreen cAMP assay)
Assay type: cell-based
Conditions: 1 μM test compound, 30 min at 37° C., human GPR52 expression CHO (dhfr−) cells; intracellular cAMP level, 100% = 1 μM 3-(6-(2-(3,4-dimethoxyphenyl)ethoxy)pyridin-2-yl)-N-(2-pyrrolidin-1-ylethyl)benzamide, 0% = DMSO
Method: Increased Intracellular cAMP Levels in Human GPR52 Expression CHO Cells
1×10^4 human GPR52 expression CHO (dhfr−) cells were incubated with 1 μM test compound for 30 min at 37° C. in 30 μL assay buffer (HBSS (containing Ca^2+ and Mg^2+), 0.5% BSA, 100 μM IBMX, 100 μM Ro 20-1724, 5 mM HEPES (pH 7.55)) using an OptiPlate-384 (by PerkinElmer). The intracellular cAMP level was then assayed with an EnVision (by PerkinElmer) according to the protocol of the AlphaScreen cAMP Assay Kit (by PerkinElmer). The GPR52 agonist activity was calculated, assuming the intracellular cAMP level to be 100% in the presence of 1 μM of 3-(6-(2-(3,4-dimethoxyphenyl)ethoxy)pyridin-2-yl)-N-(2-pyrrolidin-1-ylethyl)benzamide obtained in Reference Example 39 and assuming the intracellular cAMP level to be 0% when DMSO was added instead of test compound.

T1 sequence (Q9Y2T5 whole entry): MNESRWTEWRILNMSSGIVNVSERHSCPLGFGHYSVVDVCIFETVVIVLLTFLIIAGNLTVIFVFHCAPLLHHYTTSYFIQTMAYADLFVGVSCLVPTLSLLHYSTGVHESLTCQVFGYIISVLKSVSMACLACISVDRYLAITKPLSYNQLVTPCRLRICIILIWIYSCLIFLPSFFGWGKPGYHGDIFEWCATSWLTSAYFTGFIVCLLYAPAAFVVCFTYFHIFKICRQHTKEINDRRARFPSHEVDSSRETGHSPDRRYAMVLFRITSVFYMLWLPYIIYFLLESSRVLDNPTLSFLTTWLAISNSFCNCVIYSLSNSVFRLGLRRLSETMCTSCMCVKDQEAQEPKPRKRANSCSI

| Compound | GPR52 agonist activity (%) |
| --- | --- |
| COc1ccc(CCOc2cncc(-c3cccc(C(=O)NCCN4CCCC4)c3)c2)cc1OC [Working Example 44, 3-(5-(2-(3,4-Dimethoxyphenyl)ethoxy)pyridin-3-yl)-N-(2-pyrrolidin-1-ylethyl)benzamide] | 68 |
| COc1cccc(CCOc2cccc(-c3cccc(C(=O)Nc4ccc(F)nc4)c3)n2)c1 [Working Example 75, N-(6-Fluoropyridin-3-yl)-3-(6-(2-(3-methoxyphenyl)ethoxy)pyridin-2-yl)benzamide] | 60 |
| COc1cccc(CCOc2cccc(-c3cccc(C(=O)NC4CCOCC4)c3)n2)c1 [Working Example 67, 3-(6-(2-(3-Methoxyphenyl)ethoxy)pyridin-2-yl)-N-(tetrahydro-2H-pyran-4-yl)benzamide] | 48 |
| COc1ccc(CCOc2cccc(-c3cccc(C(N)=O)c3)n2)cc1OC [Working Example 49] | 55 |
| COc1ccc(CCOc2nccc(-c3cccc(C(=O)NCCN4CCCC4)c3)n2)cc1OC [Working Example 46, 3-(2-(2-(3,4-Dimethoxyphenyl)ethoxy)pyrimidin-4-yl)-N-(2-pyrrolidin-1-ylethyl)benzamide] | 99 |
| CC(C)(CO)NC(=O)c1cccc(-c2cccc(Oc3cc(Cl)cc(Cl)c3)n2)c1 [Working Example 91, 3-(6-(3,5-Dichlorophenoxy)pyridin-2-yl)-N-(2-hydroxy-1,1-dimethylethyl)benzamide] | 61 |
| N#CCCNC(=O)c1cc(-c2cccc(Oc3ccc(Cl)cc3Cl)n2)ccc1F [Working Example 113, N-(2-cyanoethyl)-5-(6-(2,4-dichlorophenoxy)pyridin-2-yl)-2-fluorobenzamide] | 77 |
| O=C(NCCO)c1cccc(-c2cccc(OCCc3cccc(C(F)(F)F)c3)n2)c1 [Working Example 65, N-(2-hydroxyethyl)-3-(6-(2-(3-(trifluoromethyl)phenyl)ethoxy)pyridin-2-yl)benzamide] | 64 |
| COc1ccc(CCOc2cccc(-c3cccc(C(=O)NCCN4CCCC4)c3)n2)cc1OC [Working Example 39, 3-(6-(2-(3,4-dimethoxyphenyl)ethoxy)pyridin-2-yl)-N-(2-pyrrolidin-1-ylethyl)benzamide] | 106 |
| COc1ccc(CCOc2cccc(-c3cccc(C(=O)Nc4ccccn4)c3)n2)cc1OC [Working Example 219] | 94 |

Other lines, results leading:

| GPR52 agonist activity (%) | Compound |
| --- | --- |
| 92 | COc1ccc(CCNc2nccc(-c3cccc(C(=O)N(C)CCCN(C)C)c3)n2)cc1OC [Working Example 37, 3-(2-(2-(3,4-Dimethoxyphenyl)ethylamino)pyrimidin-4-yl)-N-(3-dimethylaminopropyl)-N-methylbenzamide hydrochloride] |
| 98 | COc1ccc(CCNc2nccc(-c3cccc(NC(=O)CCCN4CCCCC4)c3)n2)cc1OC [Working Example 31, N-(3-(2-(2-(3,4-Dimethoxy-phenyl)ethylamino)pyrimidin-4-yl)phenyl)-4-(piperidin-1-yl)butanamide] |
| 85 | COc1ccc(CCNc2nccc(-c3cccc(NC(=O)CCN(C)C)c3)n2)cc1OC [Working Example 29, N-(3-(2-((2-(3,4-dimethoxyphenyl)ethyl)amino)pyrimidin-4-yl)phenyl)-N^3,N^3-dimethyl-β-alaninamide] |
| 71 | COc1ccc(CCNc2nccc(-c3cccc(NC(=O)CC4CCCN4)c3)n2)cc1OC (centres unmarked) [Working Example 25, N-(3-(2-((2-(3,4-Dimethoxyphenyl)ethyl)amino)pyrimidin-4-yl)phenyl)-2-pyrrolidin-2-yl acetamide hydrochloride] |
